Results as given in patent publication US4610987A, “Imidazoquinazolin-2-one compounds” (Daiichi Seiyaku Co., Ltd., priority 1983, dated 1986).
Counter-ions that a name gives are not always drawn. Like-named read-outs stand apart in the source and are kept apart here.

Experiments:
human platelet PDE II = assay: Inhibitory activity on phosphodiesterase, platelet PDE II (cGMP); type: biochemical; conditions: cGMP substrate
Protocol: (§1) Phosphodiesterase fractions were separated from 105,000×g of supernatant fractions from human platelets and heart by DEAE-cellulose column chromatography using the method of Timothy et al. (Arch. Biochem. Biophy. 196, 465-474, 1979) with minor modifications. These fractions were designated PDE I, PDE II and PDE III, depending upon the order of their emergence from the DEAE-cellulose column.
(§2) Phosphodiesterase activity was measured by the method of Thompson and Appleman (Biochemistry 10, 311-316, 1971) with slight modifications. The reaction mixture consisted of 25 mM of Tris-HCl (pH 7.4), 5 mM of MgCl2, 1 μM of [^3 H]-cAMP or cGMP (approximate 20,000 cpm), various concentrations of a test compound and the enzyme preparation. After incubation for 10 minutes at 30° C., the reaction was terminated by boiling the reaction mixture for 45 seconds. 5'-[^3 H]-AMP or GMP formed by phosphodiesterase was converted to [^3 H]adenosine or [^3 H]quanosine by snake venom (Botherop Atrox) containing 5'-nucleotidase and the product isolated by a cation exchange resin was counted in a liquid scintillation counter.

human platelet PDE III = human platelet PDE III (Homo sapiens, UniProt Q14432); assay: biochemical; conditions: for IC50: cAMP substrate
Protocol: as §1, §2

human heart PDE I = assay: Inhibitory activity on phosphodiesterase, heart PDE I (cGMP); type: biochemical; conditions: cGMP substrate
Protocol: as §1, §2

human heart PDE III = assay: Inhibitory activity on phosphodiesterase, heart PDE III (cAMP); type: biochemical; conditions: for IC50: cAMP substrate; for activity on heart PDE (in words): Table 6
Protocol: as §1, §2

human platelet PDE I = human platelet PDE I (Homo sapiens, UniProt O76074); assay: Inhibitory activity on phosphodiesterase, platelet PDE I (cGMP); type: biochemical; conditions: cGMP substrate
Protocol: as §1, §2

[1] = system: platelet aggregation (human platelet-rich-plasma); assay: Test of Platelet Aggregation Inhibition (in vitro), human PRP; type: cell-based; conditions: human blood, ADP-induced
Protocol: (§3) The test was performed as follows in accordance with the method of Ashida et al, Thrombosis and Haemostasis, Vol. 40, 542 (1979).
(§4) Blood was taken by puncture from the heart of a Wistar Imamichi rat under anesthesia with pentobarbital into a syringe containing 1/10 volume of a 3.13% aqueous solution of sodium citrate dihydrate, and the citrated blood was centrifuged to obtain a platelet-rich-plasma (PRP). In the same manner, citrated blood was collected from the vein of a healthy human who had not taken aspirin or any other anti-inflammatory agent since before 10 days, followed by centrifugation to obtain PRP. 5 μl of each test compound was added to 0.445 ml of each of these PRP samples, and the system was warmed at 30° C. for 1 minute. 50 μl of an aggregation inducer (ADP or collagen) was then added thereto, and platelet aggregation was determined according to the method of Born, Nature, Vol. 194, 927 (1962).

[2] = system: platelet aggregation (rat platelet-rich-plasma); assay: Test of Platelet Aggregation Inhibition (in vitro), rat PRP; type: cell-based, Wistar Imamichi rat; conditions: for IC50: Platelet, in vitro, rat blood
Protocol: as §3, §4

circulatory system = assay: Test of Influence on Circulatory System (blood pressure, heart beats); type: in vivo, SLC-Wistar rat; conditions: rat, 50 mg/Kg p.o.
Protocol: 5 or 6 male normal SLC-Wistar rats per group (body weight: 205-255 g) orally received 50 mg/Kg of the test compound, and the blood pressure (tail cuff method) and the heart beats were measured with the passage of time in order to elucidate influences of the test compound on the circulatory system.

[3] = Solubility Test (water-solubility)
platelet aggregation [4] = assay: Test of Platelet Aggregation Inhibition (ex vivo, p.o.); type: in vivo, Wistar Imamichi rat; conditions: for inhibition at 10 mg/kg: Platelet, po, ex vivo, rat, 10 mg/Kg p.o., 1 hour, *P<0.05, **P<0.01, ***P<0.001
Protocol: One hour later, citrated blood was taken from the heart, and platelet aggregation was determined in the same manner as described in the in vitro test. The inhibitory activity was compared with that of control and expressed in terms of percent inhibition.

platelet aggregation [5] = assay: Test of Platelet Aggregation Inhibition (ex vivo; i.v.); type: in vivo, Wistar Imamichi rat; conditions: iv, 10 min, rat, i.v. 1.0 mg/Kg/min, 10 min
Protocol: As test animals, 5 to 6 Wistar Imamichi rats (body weight: about 260 g) that had been allowed food and water ad libitum were used per group. The test compound was dissolved in a physiological saline solution and continuously injected over a period of 10 or 15 minutes to the rats under anesthesia with pentobarbital through the femoral vein. Immediately after completion of the administration, citrated blood was collected from the heart, and platelet aggregation was determined in the same manner as in the test in vitro in Test Example 2.

[6] = system: platelet aggregation induced by B16 melanoma cells; assay: Inhibition on Platelet Aggregation Induced by Cancer Cells (in vitro), B16; type: cell-based, C57BL/6 mouse; set-up: key: +: Aggregation was observed.; ±: Aggregation was partially inhibited.; -: No aggregation was observed
Protocol: (§5) It is known nowadays that platelet aggregation plays an important role in metastasis of cancers. […] Tanaka et al. The effect of the compounds of this invention to inhibit the above-described cancer cell-induced platelet aggregation was tested as follows. Cell suspensions of B16 or 3LL were prepared according to the method of Tanaka et al, Invarsion and Metastasis, Vol. 2, 289 (1982). […] Platelet aggregation of the sample system was determined according to the method of Born, and the platelet aggregation inhibitory activity was expressed by the following scale: […]

[7] = system: platelet aggregation induced by Lewis lung cancer (3LL) cells; assay: Inhibition on Platelet Aggregation Induced by Cancer Cells (in vitro), 3LL; type: cell-based, C57BL/6 mouse; set-up: key: +: Aggregation was observed.; ±: Aggregation was partially inhibited.; -: No aggregation was observed
Protocol: as §5

[8] = ADP-induced, read-out: IC50, platelet aggregation inhibition in vitro, ADP
[9] = collagen-induced, read-out: IC50, platelet aggregation inhibition in vitro, Collagen
[10] = ADP, read-out: ex vivo % inhibition of platelet aggregation, ADP
[11] = collagen, read-out: ex vivo % inhibition of platelet aggregation, Collagen
[12] = ADP, *P<0.05, **P<0.01, read-out: Percent Inhibition of platelet aggregation, ADP
[13] = collagen, *P<0.05, **P<0.01, read-out: Percent Inhibition of platelet aggregation, Collagen

Chain of human platelet PDE III (Q14432 whole entry): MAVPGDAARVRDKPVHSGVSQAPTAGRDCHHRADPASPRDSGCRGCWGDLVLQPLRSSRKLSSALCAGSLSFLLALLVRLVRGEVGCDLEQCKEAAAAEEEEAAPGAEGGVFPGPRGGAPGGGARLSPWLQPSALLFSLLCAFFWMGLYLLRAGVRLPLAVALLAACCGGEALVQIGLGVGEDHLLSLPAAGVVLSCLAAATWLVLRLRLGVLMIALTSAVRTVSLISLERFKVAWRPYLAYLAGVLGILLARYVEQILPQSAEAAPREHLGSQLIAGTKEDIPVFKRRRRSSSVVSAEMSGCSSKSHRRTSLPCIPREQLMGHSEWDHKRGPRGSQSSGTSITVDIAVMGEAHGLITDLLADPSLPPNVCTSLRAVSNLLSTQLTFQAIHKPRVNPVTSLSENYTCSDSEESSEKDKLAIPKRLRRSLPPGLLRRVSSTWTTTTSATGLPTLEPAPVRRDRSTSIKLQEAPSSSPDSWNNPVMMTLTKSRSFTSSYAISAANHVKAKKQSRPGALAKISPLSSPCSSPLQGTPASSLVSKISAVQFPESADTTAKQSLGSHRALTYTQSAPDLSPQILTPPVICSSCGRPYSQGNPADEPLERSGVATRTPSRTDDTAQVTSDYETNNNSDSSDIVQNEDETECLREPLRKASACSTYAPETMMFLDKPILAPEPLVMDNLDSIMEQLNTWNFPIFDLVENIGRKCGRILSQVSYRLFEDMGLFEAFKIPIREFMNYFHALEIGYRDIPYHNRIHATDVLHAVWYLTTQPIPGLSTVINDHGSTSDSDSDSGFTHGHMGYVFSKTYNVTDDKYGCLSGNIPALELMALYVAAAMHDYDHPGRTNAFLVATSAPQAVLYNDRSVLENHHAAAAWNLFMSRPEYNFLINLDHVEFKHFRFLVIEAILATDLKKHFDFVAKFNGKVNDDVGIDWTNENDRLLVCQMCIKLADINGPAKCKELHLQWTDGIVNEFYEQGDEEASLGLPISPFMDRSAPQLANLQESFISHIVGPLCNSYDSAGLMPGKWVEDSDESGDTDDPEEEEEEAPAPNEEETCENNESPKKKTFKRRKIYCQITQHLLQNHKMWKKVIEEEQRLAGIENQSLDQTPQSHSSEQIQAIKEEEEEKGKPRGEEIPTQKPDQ

Structure (SMILES)	IC50 (human platelet PDE II) [nM]	IC50 Ratio (PDE II) Heart/Platelet (human platelet PDE III)	IC50 (human platelet PDE III) [nM]	IC50 (human heart PDE I) [nM]	IC50 (human heart PDE III) [nM]	IC50 (human platelet PDE I) [nM]	IC50 [2, 8] [nM]	IC50 [2, 9] [nM]	inhibition at 10 mg/kg (platelet aggregation [4]; [10]) [%]	inhibition at 10 mg/kg (platelet aggregation [4]; [11]) [%]	also measured
O=C1CN2Cc3cc(N4CCCCC4)ccc3N=C2N1 [7-Piperidino Compound, reference compound]	54000	5.3	150	> 100000	800	93000					
Nc1cc(-c2ccncc2)c[nH]c1=O [Amrinone, 5Amino-(3,4bipyridin)-6(1H)--one, reference compound]				> 100000	34000	> 100000					
Cl.Cl.Nc1ccc2c(c1)CN1CC(=O)NC1=N2 [BL-7-NH2, 7-amino-1,2,3,5-tetrahydroimidazo[2,1-b]quinazolin-2-one dihydrochloride, reference compound]							170000	16000			IC50 [1]: 50000 nM; platelet aggregation inhibitory activity (in words) [2]: scarecely exhibited platelet aggregation inhibitory activity
Cc1cccc2c1CN1CC(=O)NC1=N2.Cl [BL-3459, 6-methyl-1,2,3,5-tetrahydroimidazo[2,1-b]quinazolin-2-one hydrochloride]							5000	760	31	54	Increase in Heart Beat (circulatory system; 1 hr, **P<0.01): 18%; Reduction in Blood Pressure (circulatory system; 1 hr, *P<0.05, **P<0.01): 23%; Increase in Heart Beat (circulatory system; 2 hr, **P<0.01): 20%; Reduction in Blood Pressure (circulatory system; 2 hr, *P<0.05, **P<0.01): 28%; Increase in Heart Beat (circulatory system; 3 hr, **P<0.01): 17%; Reduction in Blood Pressure (circulatory system; 3 hr, **P<0.01): 26%; Increase in Heart Beat (circulatory system; 5 hr, **P<0.01): 18%; Reduction in Blood Pressure (circulatory system; 5 hr, **P<0.01): 34%; Increase in Heart Beat (circulatory system; 6 hr, *P<0.05, **P<0.01): 19%; Reduction in Blood Pressure (circulatory system; 6 hr, *P<0.05, **P<0.01): 35%; Reduction in Blood Pressure (circulatory system; 24 hr, *P<0.05): 12%; IC50 [1]: 1700 nM; solubility ([3]; tap water, pH 2): < 100 µg/mL; solubility ([3]; water, pH 4, water): < 10 µg/mL; aggregation inhibitory activity in ADP- or collagen-induced aggregation (in words) (platelet aggregation [4]; orally administered, Table 2): widely varied depending on the individual animal and, therefore, cannot be regarded significant
Cl.O=C1CN2Cc3c(sc4c3CCCC4)N=C2N1 [DH-6471, reference compound]	> 100000	7.1	65	> 10000	460	> 100000					
CN(C)c1cccc2c1CN1CC(=O)NC1=N2 [Example 2]							2700	1500			
CC1CCCCN1c1ccc2c(c1)CN1CC(=O)NC1=N2 (stereo not shown) [Example 5]	57000	2.3	350	> 50000	800	45000	2000	1700			water-solubility (in words) [3]: water-soluble; activity on heart PDE (in words) (human heart PDE III): strong activity on heart PDE; platelet aggregation inhibitory activity (in words) [2]: strong platelet aggregation inhibitory activity
O=C1CN2Cc3ccc(N4CCOCC4)cc3N=C2N1 [Example 8]											inhibition at 1 mg/kg (platelet aggregation [5]; [12]): 16.5%; inhibition at 1 mg/kg (platelet aggregation [5]; [13]): 48.5%
O=C1CN2Cc3c(ccc(N4CCCCC4)c3Cl)N=C2N1 [Example 9]							7900	1200	25	32	
CN(C)c1cc2c(cc1Cl)NC1=NC(=O)CN1C2 [Example 15]	5100	1.7	63	> 100000	110	3900	1100	440	28	49	Inhibition on platelet aggregation induced by B16 ([6]; sample concn. 0.1 μM): +; Inhibition on platelet aggregation induced by B16 ([6]; sample concn. 0.3 μM): -; Inhibition on platelet aggregation induced by B16 ([6]; sample concn. 1 μM): -; Inhibition on platelet aggregation induced by B16 ([6]; sample concn. 3 μM): -; water-solubility (in words) [3]: water-soluble; activity on heart PDE (in words) (human heart PDE III): strong activity on heart PDE; platelet aggregation inhibitory activity (in words) [2]: strong platelet aggregation inhibitory activity; Inhibition on platelet aggregation induced by 3LL ([7]; sample concn. 0.3 μM): ±; Inhibition on platelet aggregation induced by 3LL ([7]; sample concn. 1 μM): -; Inhibition on platelet aggregation induced by 3LL ([7]; sample concn. 3 μM): -
O=C1CN2Cc3cc(N4CCOCC4)c(Cl)cc3N=C2N1 [Example 17]							360	100	47	68	
Cc1cc2c(cc1N1CCCCC1)CN1CC(=O)NC1=N2 [Example 18]							5400	580			
CN(C)c1ccc2c(c1Cl)CN1CC(=O)NC1=N2 [Example 22]	2900	1.2	150	> 100000	180	1600	7000	1200	64	86	water-solubility (in words) [3]: water-soluble; activity on heart PDE (in words) (human heart PDE III): strong activity on heart PDE; platelet aggregation inhibitory activity (in words) [2]: strong platelet aggregation inhibitory activity; inhibition at 1 mg/kg (platelet aggregation [5]; [12]): 23.5%; inhibition at 1 mg/kg (platelet aggregation [5]; [13]): 100%
CCN(CC)c1ccc2c(c1Cl)CN1CC(=O)NC1=N2 [Example 23]							5600	1300	25	70	
O=C1CN2Cc3cc(N4CCCC4)ccc3N=C2N1 [Example 26, 7-pyrrolidino-1,2,3,5-tetrahydroimidazo[2,1-b]quinazolin-2-one dihydrochloride]							2600	1900			
O=C1CN2Cc3cc(N4CCOCC4)ccc3N=C2N1 [Example 28]							5000	2000			
